Columns and labels:
[1] = Toxicity: LC50 (lethal concentration, 50%); type: in vivo; conditions: pure heptafluoroisobutyronitrile
[2] = Toxicity for humans and animals (statement)
Source text: Currently, the most widely-used gas in that type of equipment is sulfur hexafluoride (SF6). That gas presents dielectric strength that is relatively high, good thermal conductivity, and low dielectric losses. It is chemically inert, non-toxic for humans and animals and, after being dissociated by an electric arc, it recombines quickly and almost completely. In addition, it is non-flammable and its price is still moderate.

[3] = prior art statement; cited from earlier work

## N#CC(F)(C(F)(F)F)C(F)(F)F [Heptafluoroisobutyronitrile, 2,3,3,3-tetrafluoro-2-trifluoromethyl propanenitrile]
[1]
  LC50 (lethal concentration, 50%): greater than 15000 ppm
[2]
  toxicity for humans: no specific toxicity

## FS(F)(F)(F)(F)F [SF6, sulfur hexafluoride]
[3]
  toxicity for humans and animals: non-toxic

Source: patent publication US9899125B2, “Medium- or high-voltage electrical appliance having a low environmental impact and hybrid insulation” (Alstom Technology Ltd., priority 2012, dated 2018)
